Where two headings read alike, the source gives them in different places.
Experiments:
Format in all cases: cell-based
[1] = Cytotoxicity (CC50) in MT4 cells, mock-infected; settings: human
Experimental: (§1) Infected and uninfected cells are diluted in cell growth medium and 35 μL of 2000 (for MT4) cells is added to each well of the assay plates. Assay plates were then incubated in a 37° C. incubator. After 5 days of incubation, 25 μL of 2× concentrated CellTiter-Glo™ Reagent (catalog # G7573, Promega Biosciences, Inc., Madison, Wis.) was added to each well of the assay plate. Cell lysis was carried out by incubating at room temperature for 2-3 minutes, and then chemiluminescence was read using the Envision reader (PerkinElmer).

PXR (NR1I2) = PXR (NR1I2) (Homo sapiens (Human), UniProt O75469); assay: Human PXR activation assay (luciferase reporter, DPX2 cells); settings: human
PXR (NR1I2), sequence (O75469 whole entry): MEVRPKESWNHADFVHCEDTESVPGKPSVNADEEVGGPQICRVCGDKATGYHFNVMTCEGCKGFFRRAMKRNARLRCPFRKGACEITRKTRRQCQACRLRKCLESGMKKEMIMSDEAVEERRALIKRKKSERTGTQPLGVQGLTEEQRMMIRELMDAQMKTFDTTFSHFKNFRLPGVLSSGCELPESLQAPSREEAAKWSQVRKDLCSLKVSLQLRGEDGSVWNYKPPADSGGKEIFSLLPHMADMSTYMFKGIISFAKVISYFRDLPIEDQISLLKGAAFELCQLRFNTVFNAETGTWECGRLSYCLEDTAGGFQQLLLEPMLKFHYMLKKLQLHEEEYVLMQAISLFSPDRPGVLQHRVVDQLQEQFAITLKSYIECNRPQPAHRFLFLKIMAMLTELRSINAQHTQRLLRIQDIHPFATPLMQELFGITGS
Experimental: Luciferase Reporter Gene Assay.
A stably transformed tumor cell line (DPX2) was plated on 96-well microtiter plates. […]. The number of viable cells was determined and the reporter gene activity was assessed. […]

HIV-IIIb = assay: Antiviral assay in MT4 cells; settings: Human immunodeficiency virus 1, IIIB, MT4, 120 h
Experimental: 1 mL aliquots of 2×10^6 MT4 cells are pre-infected for 1 and 3 hours respectively at 37° C. with 25 μL (MT4) or of either cell growth medium (mock-infected) or a fresh 1:250 dilution of an HIV-IIIb concentrated ABI stock (0.004 m.o.i. for MT4 cells). Infected and uninfected cells are diluted in cell growth medium and 35 μL of 2000 (for MT4) cells is added to each well of the assay plates.
as §1, with “Assay” for “Infected and uninfected cells are diluted in cell growth medium and 35 μL of 2000 (for MT4) cells is added to each well of the assay plates. Assay”

[2] = 15 uM, DPX2 cells, % Emax relative to rifampicin, adjusted for DMSO background, read-out: PXR % inh at 15 uM (adjusted)
[3] = MT4 cells, HIV-IIIb, 5 days, read-out: EC50

SMILES	inhibition at 24 h, 15 µM (PXR (NR1I2); [2]) [%]	EC50 (HIV-IIIb; [3]) [µM]	inhibition at 24 h, 15 µM (PXR (NR1I2)) [%]	CC50 at 5 days ([1]; mock-infected) [µM]	CC50 at 5 days ([1]; mock-infected (uninfected)) [µM]	inhibition at 15 µM (PXR (NR1I2)) [%]	EC50 (HIV-IIIb) [µM]	inhibition at 15 µM (PXR (NR1I2); [2]) [%]
CCCN1C(=O)c2c(O)c(=O)c(C(=O)NCc3c(F)cc(F)cc3F)cn2[C@@H]2CCO[C@@H]21 (racemic) [Compound 24]	29	0.00729	–	37.5	–	–	–	–
CN1C(=O)c2c(O)c(=O)c(C(=O)NCc3c(F)cc(F)cc3F)cn2[C@@H]2CCCC[C@H]21 [Compound 1]	–	0.00643	32	–	27.3	–	–	–
CCN1C(=O)c2c(O)c(=O)c(C(=O)NCc3c(F)cc(F)cc3F)cn2[C@@H]2CCCC[C@@H]21 [Compound 5]	66	0.00474	–	–	17	–	–	–
O=C(NCc1c(F)cc(F)cc1F)c1cn2c(c(O)c1=O)C(=O)N(CC(F)(F)F)[C@@H]1CCCC[C@H]12 [Compound 7]	36	0.0149	–	–	19.8	–	–	–
O=C(NCc1c(F)cc(F)cc1F)c1cn2c(c(O)c1=O)C(=O)N(CC(F)(F)F)[C@@H]1CCOC[C@H]12 [Compound 8]	24	0.0165	–	–	57.1	–	–	–
CN1C(=O)c2c(O)c(=O)c(C(=O)NCc3c(F)cc(F)cc3F)cn2[C@H]2COCC[C@]21C(F)F [Compound 9]	–	–	–	–	11.3	27	0.0014	–
CN1C(=O)c2c(O)c(=O)c(C(=O)NCc3c(F)cc(F)cc3F)cn2[C@@H]2CCOC[C@H]21 [Compound 10]	–	0.00765	–	–	34.9	–	–	–
CCN1C(=O)c2c(O)c(=O)c(C(=O)NCc3ccc(F)c(Cl)c3F)cn2[C@@H]2CCOC[C@H]21 [Compound 13]	5	0.0107	–	–	7.32	–	–	–
CCN1C(=O)c2c(O)c(=O)c(C(=O)NCc3cc(Cl)c(F)cc3F)cn2[C@H]2CCOC[C@H]21 [Compound 15]	6	0.00792	–	–	14.9	–	–	–
CCN1C(=O)c2c(O)c(=O)c(C(=O)NCc3cc(F)c(F)cc3F)cn2[C@H]2CCOC[C@H]21 [Compound 17]	7	0.00481	–	–	23.9	–	–	–
CCN1C(=O)c2c(O)c(=O)c(C(=O)NCc3ccc(F)c(F)c3)cn2[C@H]2CCOC[C@H]21 [Compound 20]	1	0.0096	–	–	34.1	–	–	–
CCN1C(=O)c2c(O)c(=O)c(C(=O)NCc3c(F)cc(F)cc3F)cn2[C@@H]2CCO[C@@H]21 [Compound 26a]	15	0.00527	–	–	24.3	–	–	–
CCN1C(=O)c2c(O)c(=O)c(C(=O)NCc3c(F)cc(F)cc3F)cn2[C@H]2CCO[C@H]21 [Compound 26b]	24	0.00493	–	–	30.9	–	–	–
CN1C(=O)c2c(O)c(=O)c(C(=O)NCc3c(F)cc(F)cc3F)cn2[C@@H]2CCC[C@@H]21 [Compound 29]	–	–	–	–	–	–	–	49
CN1C(=O)c2c(O)c(=O)c(C(=O)NCc3c(F)cc(F)cc3F)cn2[C@H]2COC[C@H]21 [Compound 42]	3	0.00567	–	–	31.9	–	–	–
CN1C(=O)c2c(O)c(=O)c(C(=O)NCc3c(F)cc(F)cc3F)cn2[C@H]2CCC[C@H]21 [Compound 58]	–	–	–	–	–	–	–	25

Continued by falling EC50 (HIV-IIIb; [3]), values first:

inhibition at 24 h, 15 µM (PXR (NR1I2); [2]) [%]	EC50 (HIV-IIIb; [3]) [µM]	inhibition at 24 h, 15 µM (PXR (NR1I2)) [%]	SMILES	CC50 at 5 days ([1]; mock-infected) [µM]	CC50 at 5 days ([1]; mock-infected (uninfected)) [µM]	inhibition at 15 µM (PXR (NR1I2)) [%]	EC50 (HIV-IIIb) [µM]	inhibition at 15 µM (PXR (NR1I2); [2]) [%]
20	0.00458	–	CCN1C(=O)c2c(O)c(=O)c(C(=O)NCc3ccc(F)c(Cl)c3F)cn2[C@@H]2CCO[C@@H]21 [Compound 25a]	–	25.9	–	–	–
4	0.0044	–	O=C(NCc1c(F)cc(F)cc1F)c1cn2c(c(O)c1=O)C(=O)N[C@H]1CCC[C@H]12 [Compound 28]	–	10.8	–	–	–
11	0.00428	–	CCN1C(=O)c2c(O)c(=O)c(C(=O)NCc3ccc(F)c(F)c3F)cn2[C@H]2CCOC[C@H]21 [Compound 19]	–	27.8	–	–	–
35	0.00427	–	CCCN1C(=O)c2c(O)c(=O)c(C(=O)NCc3c(F)cc(F)cc3F)cn2[C@H]2CCOC[C@H]21 [Compound 37]	–	33.9	–	–	–
–	0.0039	46	CN1C(=O)c2c(O)c(=O)c(C(=O)NCc3c(F)cc(F)cc3F)cn2[C@H]2CCCC[C@@H]21 [Compound 2]	–	11.2	–	–	–
6	0.0038	–	O=C(NCc1c(F)cc(F)cc1F)c1cn2c(c(O)c1=O)C(=O)N(CC(F)(F)F)[C@@H]1COCC[C@H]12 [Compound 35]	–	16.5	–	–	–
8	0.00377	–	CN1C(=O)c2c(O)c(=O)c(C(=O)NCc3c(F)cc(F)cc3F)cn2[C@@H]2CCO[C@@H]21 [Compound 23]	–	18	–	–	–
4	0.00369	–	CN1C(=O)c2c(O)c(=O)c(C(=O)NCc3ccc(F)c(Cl)c3F)cn2[C@@H]2CCOC[C@H]21 [Compound 11]	–	8.32	–	–	–
6	0.00345	–	O=C(NCc1c(F)cc(F)cc1F)c1cn2c(c(O)c1=O)C(=O)N(C1CC1)[C@H]1OCC[C@H]12 (racemic) [Compound 21]	31.1	–	–	–	–
2	0.00333	–	CCN1C(=O)c2c(O)c(=O)c(C(=O)NCc3cccc(F)c3F)cn2[C@H]2CCOC[C@H]21 [Compound 18]	–	26.9	–	–	–
9	0.00325	–	CN1C(=O)c2c(O)c(=O)c(C(=O)NCc3c(F)cc(F)cc3F)cn2[C@@H]2CCOC[C@@H]21 [Compound 30]	–	10.4	–	–	–
–	0.00296	–	CN1C(=O)c2c(O)c(=O)c(C(=O)NCc3c(F)cc(F)cc3F)cn2[C@@H]2CCCC[C@@H]21 [Compound 3]	–	11	–	–	–
26	0.00289	–	CN1C(=O)c2c(O)c(=O)c(C(=O)NCc3c(F)cc(F)cc3F)cn2[C@H]2COCC[C@]21C [Compound 14]	–	11.6	–	–	–
67	0.00283	–	CC(C)N1C(=O)c2c(O)c(=O)c(C(=O)NCc3c(F)cc(F)cc3F)cn2[C@H]2CCOC[C@H]21 [Compound 38]	–	16.6	–	–	–
3	0.00223	–	O=C(NCc1c(F)cc(F)cc1F)c1cn2c(c(O)c1=O)C(=O)N(CC(F)F)[C@@H]1COCC[C@@H]12 [Compound 34]	–	32.3	–	–	–
7	0.00213	–	CCN1C(=O)c2c(O)c(=O)c(C(=O)NCc3cccc(Cl)c3F)cn2[C@H]2CCOC[C@H]21 [Compound 16]	–	11.5	–	–	–
5	0.00158	–	O=C(NCc1ccc(F)c(Cl)c1F)c1cn2c(c(O)c1=O)C(=O)N(CC(F)F)[C@@H]1COCC[C@@H]12 [Compound 36]	–	19.7	–	–	–
–	0.00131	22	CCN1C(=O)c2c(O)c(=O)c(C(=O)NCc3c(F)cc(F)cc3F)cn2[C@H]2CCC3(C[C@H]21)OCCO3 [Compound 40b]	–	23.1	–	–	–
–	0.00128	4	CCN1C(=O)c2c(O)c(=O)c(C(=O)NCc3c(F)cc(F)cc3F)cn2[C@H]2CCC(=O)C[C@H]21 [Compound 40a]	–	29	–	–	–
–	0.00117	–	CN1C(=O)c2c(O)c(=O)c(C(=O)NCc3ccc(F)c(Cl)c3F)cn2[C@@H]2CCO[C@@H]21 [Compound 27]	–	57.1	–	–	–

From patent publication US9795602B2, “Polycyclic-carbamoylpyridone compounds and their pharmaceutical use” (Gilead Sciences, Inc., priority 2014, dated 2017)
